Assay results published in patent US9108958B2, “Selective CCR2 antagonists” (Boehringer Ingelheim International GmbH, priority 2011, dated 2015).

Key:
[1] = target: T1, CCR2 (Homo sapiens, UniProt P41597); assay: CCR2 receptor membrane binding assay ([125I]MCP-1, THP-1 cell membranes, SPA beads); details: THP-1 membranes, [125I]MCP-1, bound radioactivity after 8 h; read-out: hKi [nM](CCR2)
T1 construct: Membranes were prepared from THP-1 cells; endogenous in cells; host or cells: THP-1 (human acute monocytic leukaemia cells), membrane preparation
T1 sequence (P41597 1-360 isoform P41597-2): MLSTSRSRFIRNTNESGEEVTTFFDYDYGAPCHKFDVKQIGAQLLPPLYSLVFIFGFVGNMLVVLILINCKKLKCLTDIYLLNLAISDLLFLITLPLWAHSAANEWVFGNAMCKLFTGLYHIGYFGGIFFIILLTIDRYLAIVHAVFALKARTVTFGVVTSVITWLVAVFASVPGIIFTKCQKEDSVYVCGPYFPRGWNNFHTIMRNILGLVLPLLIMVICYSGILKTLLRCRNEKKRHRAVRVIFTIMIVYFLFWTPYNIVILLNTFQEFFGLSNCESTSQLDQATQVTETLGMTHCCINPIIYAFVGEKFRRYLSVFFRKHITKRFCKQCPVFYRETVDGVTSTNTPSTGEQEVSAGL
Experimental: The above exemplary substances have been tested for binding to CCR2 using a binding assay as outlined herein below:
THP-1 cells (human acute monocytic leukaemia cells) were cultured under standardized conditions at 37° C. and 5% CO2 in a humidified incubator. THP-1 cells were cultivated in RPMI 1640 medium (Gibco 21875) containing 1% MEM-NEAA (Gibso 11140) 2 mM L-glutamine, 1.5 g/L sodium bicarbonate, 4.5 g/L glucose, 10 mM HEPES and 1.0 mM sodium pyruvate, 90%; 10% fetal calf serum (FCS Gibco 10500-064).
Membranes were prepared from THP-1 cells. THP-1 cells were centrifuged at 300×g at 4° C. for 10 min. The cell pellet was resuspendet in Phosphate Buffer Saline (PBS, including 10 μM Pefabloc and a protease inhibitor mix ‘complete’, Boehringer Mannheim (1 tablet/50 ml)), to a concentration of […]. The membrane preparation was performed by disrupting the cells by nitrogen […] (at 50 bar, for 1 h) in a “Nitrogen Bombe” (Parr Instrument). Cell debris was removed by centrifugation (800×g at 4° C., 1 min) The supernatant was centrifuged at 80000×g, 4° C. for 30 min to sediment the cell membranes. Usually 50 mg of protein (Bradford assay) were yielded from 1×10E9 cells. The membranes were resuspendet in 25 mM HEPES, 25 mM MgCl2, 1 mM CaCl2, 10% Glycerine for storage in aliquots at −80° C. in 25 mM HEPES, 25 mM MgCl2, 1 mM CaCl2, 10% Glycerine and stored at −80° C.
(§1) Receptor Membrane Binding Assay:
Perkin Elmer NEX 332 Jod^125 MCP-1, Stock: 2200 Ci/mmol solved in 2000 μl assay buffer, stored at −20° C. THP-1 membrane were adjusted with 25 mM HEPES, pH 7.2; 5 mM MgCl2; 0.5 mM CaCl2; 0.2% BSA assay buffer to a concentration of 2.5 μg/15 μl. Amersham Biosciences PVT-WGA Beads (RPNQ0001) were adjusted with assay buffer to a concentration of 0.24 mg/30 μl. For preparation of the membrane-bead-suspension membranes and beads were incubated for 30 min at RT under rotation (60 rpm) with a ratio of 1:2. Test compounds dissolved in 100% DMSO to a concentration of 10 mM and are further diluted with 100% DMSO to 1 mM. All additional compound dilutions were obtained with assay buffer, final 1% DMSO. Compounds, membrane-bead-suspension and [^125I]MCP-1 (ca. 25000 cpm/10 μl) were incubated. Bound radioactivity was determined by scintillation counter after 8 h. Determination of affinity of test compounds (dissociation constant hKi) is calculated by iterative fitting of experimental data using the “easy sys” program, which is based on law of mass action (Schittkowski K. (1994), Numerische Mathematik, Vol. 68, 129-142).

[2] = target: T2, human CCR5 (Homo sapiens, UniProt P51681); assay: CCR5 receptor membrane binding assay ([125I]RANTES, CHO (Gα16) human CCR5 cell membranes, SPA beads); details: bound radioactivity after 6 h, read-out: hKi [nM] (CCR5)
T2 construct: expressed in transfected cells; host or cells: CHO cells co-expressing Gα16, under puromycin and zeocin selection; membrane preparation
Experimental: The above exemplary substances have been tested for binding to CCR5 using a binding assay as outlined herein below:
CHO, (Gα16) human CCR5 cells were cultured under standardized conditions at 37° C. and 5% CO2 in a humidified incubator. CHO (Gα16) human CCR5 cells were cultivated in Ham's F12 (Invitrogen; #31765068) supplemented with 10 μg/ml Puromycin (Invitrogen; #A11139-03), 200 μg/ml Zeocin (Invitrogen; #45-0003) and 10% FCS (Gibco; #10500-064).
Membranes were prepared from CHO (Gα16) human CCR5 cells. Cells were cultured on […] plates (Nunc; #166508) 2-3 days before membrane preparation (usually 80-100 plates to obtain 80 mg protein).
Cells were scraped off the plates with a big scraper and washed with 2×5 ml ice cold Phosphate Buffer Saline (PBS; Invitrogen; #14040-174). Cell suspension was collected in a glass bottle (on ice). Cell suspension was harvested at 1400 rpm and 4° C. for 10 min and washed in PBS. Cell pellet was resuspended in 40 ml PBS with protease inhibitor mix ‘complete’ (Roche; #11873580001; 1 tablet/50 ml).
For gentle cell disruption the membrane preparation was performed by using a homogenizer (potter). Cells were homogenized for 5-10 min.
Membranes were centrifuged at 1000 rpm and 4° C. for 5 min Supernatant (=membrane) was harvested in a new falcon tube and remaining cell pellet homogenized again for 5-10 min with PBS with protease inhibitor mix and centrifuged. Collected supernatant was centrifuged at 40000 rpm and 4° C. for 30 min to sediment the cell membranes.
The membranes were resuspended in 25 mM HEPES, 25 mM MgCl2, 1 mM CaCl2, 10% Glycerine for storage in aliquots at −80° C. Membranes were diluted to a concentration of 5 mg/ml (Bradford Assay).
as §1
[^125I]RANTES, Stock: 1825 Ci/mmol, 25 μCi (Bio Trend #A3-AI-676) was solved in 1000 μl assay buffer (100 mM NaCl; 10 mM MgCl2; 50 mM Tris-HCl; 1 mM EDTA; 0.1% BSA, pH 7.6), stored at −20° C.
CHO (Gα16) human CCR5 membrane were solved on ice and adjusted with assay buffer to a concentration of 2.5 μg/15 μl.
Amersham Biosciences PVT-WGA Beads (GE Healthcare; #RPNQ0001) were adjusted with assay buffer to a concentration of 8 mg/ml. For preparation of the membrane-bead-suspension, membranes and beads were incubated for 30 min at RT under rotation with a ratio of 1:2.
Test compounds dissolved in 100% DMSO to a concentration of 10 mM and are further diluted with 100% DMSO to 1 mM. All additional compound dilutions were obtained with assay buffer, final 1% DMSO. 7 μl compound dilution, 45 μl membrane-bead-suspension and 10 μl [^125I]RANTES (ca. 20000 cpm/10 μl) were incubated at RT. Bound radioactivity was determined by scintillation counter after 6 h. Determination of affinity of test compounds (dissociation constant Ki) is calculated by iterative fitting of experimental data using the “easy sys” program, which is based on law of mass action (Schittkowski K. (1994), Numerische Mathematik, Vol. 68, 129-142).

T2 sequence (P51681 whole entry): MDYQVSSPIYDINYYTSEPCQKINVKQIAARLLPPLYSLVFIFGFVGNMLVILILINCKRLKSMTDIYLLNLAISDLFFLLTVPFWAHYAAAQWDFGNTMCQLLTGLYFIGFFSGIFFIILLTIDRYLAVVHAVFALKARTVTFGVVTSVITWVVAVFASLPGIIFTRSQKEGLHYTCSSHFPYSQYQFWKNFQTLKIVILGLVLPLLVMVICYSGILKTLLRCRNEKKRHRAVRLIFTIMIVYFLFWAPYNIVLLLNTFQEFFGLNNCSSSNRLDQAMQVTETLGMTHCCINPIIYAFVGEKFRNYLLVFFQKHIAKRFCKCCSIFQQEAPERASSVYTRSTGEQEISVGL

| Ki [1] | Ki [2] | Structure (SMILES) |
| --- | --- | --- |
| 4 nM | 700 nM | CO[C@H]1COCC[C@H]1NC1CCN(C(=O)c2nc(C3CCOCC3)nc(N3CCc4cc(C(F)(F)F)ccc4C3)c2C)CC1 [Example 3] |
| 2 nM | 180 nM | CO[C@@H]1COCC[C@@H]1NC1CCN(C(=O)c2nc(CF)nc(N3CCc4ccc(C(F)(F)F)cc4C3)c2C)CC1 [Example 17] |
| 4 nM | 190 nM | CO[C@H]1COCC[C@H]1NC1CCN(C(=O)c2nc(C(F)F)nc(N3CCc4ccc(C(F)(F)F)cc4C3)c2C)CC1 [Example 34] |
| 3 nM | 2090 nM | Cc1c(C(=O)N2CCC(N[C@@H]3CCOC[C@@H]3F)CC2)nc(C2CCOCC2)nc1N1CCc2ccc(C(F)(F)F)cc2C1 [Example 14] |
| 34 nM | 3680 nM | Cc1c(C(=O)N2CCC(N[C@H]3CCOC[C@@H]3F)CC2)nc(CF)nc1N1CCc2ccc(C(F)(F)F)cc2C1 (relative stereo) [Example 46] |
| 0.8 nM | 430 nM | CO[C@H]1COCC[C@H]1NC1CCN(C(=O)c2nc(C3CCOCC3)nc(N3CCc4ccc(C(F)(F)F)cc4C3)c2C)CC1 [Example 11] |
| 3 nM | 350 nM | Cc1c(Nc2ccc(Cl)c(Cl)c2)nc(CF)nc1C(=O)N1CCC(NC2CCOCC2F)CC1 (centres unmarked) [Example 19] |
| 15 nM | 850 nM | CO[C@H]1COCC[C@H]1NC1CCN(C(=O)c2nc(-c3cc(C)on3)nc(N3CCc4cc(C(F)(F)F)ccc4C3)c2C)CC1 [Example 10] |
| 37 nM | – | Cc1c(Nc2ccc(Cl)c(Cl)c2)nc(CF)nc1C(=O)N1CCC(N2CCOCC2)CC1 [Example 38] |
| 3 nM | 270 nM | Cc1c(NC[C@H]2CCC[C@@H](c3ccc(C(F)(F)F)cc3)O2)nc(C2CCOCC2)nc1C(=O)N1CCC(N[C@@H]2CCOC[C@@H]2F)CC1 [Example 15] |
| 15 nM | 750 nM | Cc1cc(-c2nc(C(=O)N3CCC(N[C@H]4CCOC[C@H]4F)CC3)c(C)c(N3CCc4ccc(C(F)(F)F)cc4C3)n2)no1 [Example 27] |
| 0.6 nM | 31 nM | CO[C@@H]1COCC[C@@H]1NC1CCN(C(=O)c2nc(CF)nc(Nc3ccc(Cl)c(Cl)c3)c2C)CC1 [Example 20] |
| 4 nM | – | CO[C@@H]1COCC[C@@H]1NC1CCN(C(=O)c2nc(C3CCN(C(C)=O)CC3)nc(Nc3ccc(Cl)c(Cl)c3)c2C)CC1 [Example 44] |
| 5 nM | 460 nM | CO[C@H]1COCC[C@H]1NC1CCN(C(=O)c2nc(CF)nc(N3CCc4ccc(C(F)(F)F)cc4C3)c2C)CC1 [Example 18] |
| 1 nM | 210 nM | Cc1c(NC[C@H]2CCC[C@@H](c3ccc(C(F)(F)F)cc3)O2)nc(C2CCOCC2)nc1C(=O)N1CCC(N[C@H]2CCOC[C@H]2F)CC1 [Example 16] |
| 3 nM | 265 nM | CO[C@H]1COCC[C@H]1NC1CCN(C(=O)c2nc(C(F)(F)F)nc(N3CCc4ccc(C(F)(F)F)cc4C3)c2C)CC1 [Example 1] |
| 2 nM | 75 nM | CO[C@H]1COCC[C@H]1NC1CCN(C(=O)c2nc(CF)nc(Nc3ccc(Cl)c(Cl)c3)c2C)CC1 [Example 21] |
| 1 nM | – | Cc1cc(-c2nc(NC[C@H]3CCC[C@@H](c4ccc(C(F)(F)F)cc4)O3)c(C)c(C(=O)N3CCC(N[C@H]4CCOC[C@H]4F)CC3)n2)no1 [Example 23] |
| 4 nM | – | CO[C@@H]1COCC[C@@H]1NC1CCN(C(=O)c2cc(NC[C@H]3CCC[C@@H](c4ccc(SC)cc4)O3)nc(CF)n2)CC1 [Example 39] |
| 1 nM | – | CO[C@H]1COCC[C@H]1NC1CCN(C(=O)c2nc(-c3cc(C)on3)nc(NC[C@H]3CCC[C@@H](c4ccc(C(F)(F)F)cc4)O3)c2C)CC1 [Example 25] |
| 15 nM | – | Cc1ccc([C@@H]2CCC[C@H](CNc3cc(C(=O)N4CCC(NC5CCOCC5F)CC4)nc(CF)n3)O2)cc1 (some centres unmarked) [Example 31] |
| 19 nM | – | CC(=O)N1CCC(c2nc(Nc3ccc(Cl)c(Cl)c3)c(C)c(C(=O)N3CCC(N[C@H]4CCOC[C@H]4F)CC3)n2)CC1 [Example 43] |
| 0.7 nM | – | CO[C@@H]1COCC[C@@H]1NC1CCN(C(=O)c2nc(-c3cc(C)on3)nc(NC[C@H]3CCC[C@@H](c4ccc(C(F)(F)F)cc4)O3)c2C)CC1 [Example 22] |
| 7 nM | – | Cc1c(C(=O)N2CCC(NC3CCOCC3)CC2)nc(C(F)(F)F)nc1N1CCc2ccc(C(F)(F)F)cc2C1 [Example 33] |
| 2 nM | – | Cc1c(Nc2ccc(Cl)c(Cl)c2)nc(CF)nc1C(=O)N1CCC(N2CCC(N(C)S(C)(=O)=O)CC2)CC1 [Example 36] |
| 3 nM | – | CO[C@@H]1COCC[C@@H]1NC1CCN(C(=O)c2cc(NC[C@H]3CCC[C@@H](c4ccc(C)cc4)O3)nc(CF)n2)CC1 [Example 30] |
| 5 nM | – | CO[C@H]1COCC[C@H]1NC1CCN(C(=O)c2cc(NC[C@H]3CCC[C@@H](c4ccc(C)cc4)O3)nc(CF)n2)CC1 [Example 32] |
| 17 nM | – | CC(=O)N1CCC(c2nc(Nc3ccc(Cl)c(Cl)c3)c(C)c(C(=O)N3CCC(N[C@@H]4CCOC[C@@H]4F)CC3)n2)CC1 [Example 42] |
| 2 nM | – | CO[C@H]1COCC[C@H]1NC1CCN(C(=O)c2cc(NC[C@H]3CCC[C@@H](c4ccc(SC)cc4)O3)nc(CF)n2)CC1 [Example 41] |
